Article PMC10892288, “Early Stage Preclinical Formulation Strategies to Alter the Pharmacokinetic Profile of Two Small Molecule Therapeutics” (Pharmaceuticals, 2024)

Columns and labels:
[1] = Log P (physiochemical properties); format: physicochemical
[2] = Permeability (physiochemical properties); format: in vitro ADME
[3] = Mouse IV infusion of G6893 by iPRECIO pump; format: in vivo, female C57BL-6 mice; conditions: 0.5 mg/kg/h, 2.5 mg/mL in 100% PEG400, over 96 h
Text: This is often a concern for molecules in early drug discovery stages. Various formulation and delivery strategies have been devised to modify the systemic PK profiles of drug molecules, encompassing nanoparticles, microparticles, lipid and polymer conjugation, implanted infusion pump device technologies, and subcutaneous depots. Here, we examined two strategies aimed at maintaining the drug concentration at a designed target concentration for the maximum duration potentially needed for proof of concept studies. The initial approach involved using an implantable device, the iPRECIO pump that allows for a controlled and sustained infusion, as opposed to a typical bolus IV injection. The infusion pump strategies can be a promising tool to achieve the desired delivery profile of a compound, given the solubility requirements based on the intended target release and PK profile. […]
All plasma and cell media concentrations of G7883 and G6893 were determined using liquid chromatography–tandem mass spectrometry after protein precipitation with acetonitrile and injection of the supernatant onto the column (Waters ACQUITY UPLC BEH C18 1.7 μm, 2.1 × 50 mm for G7883 and G6893). […] The lower limit of quantitation of the assay was 5.1 ng/mL, and the dilution quality control concentration was set at 10 ng/mL with acceptance criteria for accuracy and precision of 25%.

HPK1 = HPK1 (Homo sapiens, UniProt Q92918); test: Potency (IC50) of HPK1 inhibitor
Chain of HPK1 (Q92918 whole entry, species assumed): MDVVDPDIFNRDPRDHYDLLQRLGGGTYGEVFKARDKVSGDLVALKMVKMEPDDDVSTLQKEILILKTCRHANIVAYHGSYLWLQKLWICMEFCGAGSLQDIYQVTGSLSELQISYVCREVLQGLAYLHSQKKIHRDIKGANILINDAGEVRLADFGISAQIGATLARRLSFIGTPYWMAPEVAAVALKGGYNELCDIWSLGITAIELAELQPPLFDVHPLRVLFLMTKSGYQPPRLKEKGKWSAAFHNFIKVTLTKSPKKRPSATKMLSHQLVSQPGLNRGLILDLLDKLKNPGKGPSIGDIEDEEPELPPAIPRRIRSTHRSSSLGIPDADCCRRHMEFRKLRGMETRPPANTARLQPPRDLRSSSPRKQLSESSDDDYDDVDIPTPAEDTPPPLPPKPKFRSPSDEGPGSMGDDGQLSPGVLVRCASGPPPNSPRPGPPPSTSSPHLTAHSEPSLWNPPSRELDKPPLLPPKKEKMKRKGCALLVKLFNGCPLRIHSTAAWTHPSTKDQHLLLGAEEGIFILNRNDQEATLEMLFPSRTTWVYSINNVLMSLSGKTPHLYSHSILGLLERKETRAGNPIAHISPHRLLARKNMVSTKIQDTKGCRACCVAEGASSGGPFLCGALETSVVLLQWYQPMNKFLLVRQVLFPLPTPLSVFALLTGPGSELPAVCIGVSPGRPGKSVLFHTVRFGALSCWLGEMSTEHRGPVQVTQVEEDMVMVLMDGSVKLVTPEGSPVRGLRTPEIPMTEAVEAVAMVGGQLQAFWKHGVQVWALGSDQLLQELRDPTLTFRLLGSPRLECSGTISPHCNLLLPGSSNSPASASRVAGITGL

[4] = Vehicle screening for solution or suspension formulations; format: physicochemical; conditions: 100% PEG400
Procedure: Based on the target concentration, G7883 was screened at 3.3 mg/mL in three different vehicles of 100%PEG400, 10%DMSO in 90%PEG400, and 20%DMSO in 80%PEG400 to generate a stable solution. […] A total of 50% DMSO is the maximum amount compatible with the iPRECIO pump system. Based on the target concentration, G6893 was screened at 5 mg/mL in four different vehicles as follows: 100% PEG400, 20% DMSO in 80% PEG400, 20% DMA and 40% PG in 40% PEG400, and 10% EtOH and 20% HPbCD in 70% water at pH 4.5. G6893 achieved a solution at the target concentration of 5 mg/mL in 100% PEG400 and maintained a solution without precipitation after dilution in PBS buffer.
G7883 was screened in different oil vehicles including corn, coconut, paraffin, soybean, and sunflower oil.

[5] = pKa (physiochemical properties); format: physicochemical
Text: Table 1 Physiochemical properties of […] and […]. | column: […]; […]

[6] = Mouse PK of G6893, PO in MCT vehicle; format: in vivo, female C57BL-6 mice; conditions: female, C57BL-6, plasma, 30 mg/kg, PO 30 mpk, MCT vehicle pH 2.5, mouse
Procedure: A total of 0.6% w/v Methylcellulose, 0.2% w/v Tween 80 in water (MCT) was prepared by slowly adding Methylcellulose (Methylocel A15 LV; CAS 9004-67-5, Part ID: 64605-500G-F 27.5-31.5% Methoxyl basis, Sigma-Aldrich, St. Louis, MO, USA) in small portions to prevent clumping while stirring into water at 70–80 °C. Once a homogeneous suspension formed, Tween 80 (Polysorbate 80; CAS#9005-65-6 (Polyoxyethylene (20) Sorbitan Monooleate; Tween 80) Part ID: PO138, Spectrum Chemical, New Brunswick, NJ, USA) was added and stirred until fully dissolved. Vehicle was filtered through 0.22 µm PES (Corning REF no. 431098) prior to adding to the compound for dosing. Respective compound was added based on the target concentration to the MCT vehicle and stirred at 35 °C until the power was well-dispersed. Formulations were homogenized through a polytron homogenizer and then sonicated in a water bath sonicator until a homogeneous suspension was achieved.
The pharmacokinetics of G7883 were determined in female CD-1 mice obtained from Charles River Laboratories (Hollister, CA, USA) with a body weight ranging from 20 to 25 g. The pharmacokinetics of G6893 were determined in female C57BL-6 mice (Lingchang/Vital River Laboratory Animal Co., Ltd., Shanghai/Beijing, China) with a body weight ranging from 20 to 35 g. Three mice were given an oral dose of G7883 formulated in 0.6% Methylcellulose, 0.2% Tween80 in water (MCT) at 25 mg/kg and 250 mg/kg with a dosing volume of 10 mL/kg. Food and water were available ad libitum to the animals. Three mice were given an oral dose of G6893 formulated in 0.6% methylcellulose; 0.2% Tween80 in water with pH adjusted to 2.5 at 30 mg/kg and a dose volume of 5 mL/kg. For both compounds, G7883 and G6893, 15 µL of blood was collected serially at 0. 25, 0.5, 1, 2, 4, 6, 8, and 24 h post-dose and diluted in 60 µL of 1.7 mg/mL potassium K2EDTA water. The frozen blood samples were stored at −70 °C or lower until analysis.
All plasma and cell media concentrations of G7883 and G6893 were determined using liquid chromatography–tandem mass spectrometry after protein precipitation with acetonitrile and injection of the supernatant onto the column (Waters ACQUITY UPLC BEH C18 1.7 μm, 2.1 × 50 mm for G7883 and G6893). The aqueous mobile phase was 0.1% formic acid, 2 mM ammonium formate in water/acetonitrile (v:v, 95:5), and the organic mobile phase was 0.1% formic acid, 2 mM ammonium formate in acetonitrile/water (v:v, 95:5). An AB Sciex API 4000 Triple Quad instrument was used for detecting G7883 and G6893 (Figure S2). The electrospray ionization source in both columns was operated in the positive ion and multiple reaction monitoring (MRM) detection modes. The MRM transitions for G7883 and G6893 were m/z 462.2 (Q1) and 253.10 (Q3) and m/z 454.2 (Q1) and 325.9 (Q3), respectively. The dynamic range of both assays was 0.50–50.0 ng/mL, and the total run time was 1.6 min. The lower limit of quantitation of the assay was […], and the dilution quality control concentration was set at 10 ng/mL with acceptance criteria for accuracy and precision of 25%.

[7] = Water solubility (physiochemical properties); format: physicochemical

- logP [1]: 2.69
- permeability (in words) [2]: high permeability
- Papp ([2]; not told): 150 nm/s
- IC50 (HPK1): 0.56 µM
- concentration at which a solution was achieved [4]: ≥ 5000 µg/mL
- pKa [5]: 2.53
- Cmax ([6]; mean ± SD): 3.8 ± 1.68 µM
- Tmax ([6]; mean ± SD): 0.667 ± 0.289 h
- bioavailability ([6]; mean ± SD): 45.5 ± 14%
- half-life ([6]; mean ± SD): 3.07 ± 1.92 h
- AUC(0-t) ([6]; read-out: AUC0 to 8): 19.5 µM·h
- solubility (in words) [7]: low solubility
- solubility ([7]; water): < 1 µg/mL
Compound: Cc1c(-c2cc3cc(NC(=O)O[C@H]4COC[C@@H]4C)ncc3c(N)c2F)cnc2c1NCCO2 (racemic) [G6893, [rac-(3R,4S)-4-methyltetra hydrofuran-3-yl]N-[8-amino-7-fluoro-6-(8-methyl-2,3-dihydro-1H-pyrido[2,3-b][1,4]oxazin-7-yl)-3-isoquinolyl]carbamate]
- plasma concentration relative to target concentration (IC50) [3]: successfully maintained the target concentration profile
